Test results as given in patent US9040528B2, “Chemical compounds 542” (AstraZeneca AB, priority 2008, dated 2015).
Where two headings read alike, the source gives them in different places.

Target: Escherichia coli DNA gyrase A/B tetramer (Escherichia coli (strain K12), UniProt P0AES4+P0AES6)
Test: DNA gyrase supercoiling activity fluorescence polarisation assay
Type: biochemical
In short: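 Supercoiling reactions quenched with 40 nM 5′-BODIPY-FL triplex-forming oligonucleotide probe in pH 3.5 NaCl/sodium acetate buffer; after 60 min, fluorescence anisotropy read (ex 485/em 535 nm). IC50 by nonlinear regression, normalised to 0.8% DMSO (100% activity) and 5 μM ciprofloxacin (0% activity).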

[1] = 5 nM enzyme, relaxed plasmid, 0.3 mM ATP, ambient temperature, read-out: E. coli DNA gyrase supercoiling IC50

SMILES | IC50 [1] | IC50
Cc1noc2c(F)c3c(cc12)CC1(C(=O)NC(=O)NC1=O)[C@@H]1[C@@H](C)O[C@@H](C)CN31 [Example 2(a), (2S,4R,4aR)-11-fluoro-2,4,8-trimethyl-2,4,4a,6-tetrahydro-1′H,1′H-spiro[isoxazolo[4,5-g][1,4]oxazino[4,3-a]quinoline-5,5′-pyrimidine]-2′,4′,6′(3′H)-trione] | 83000 nM | –
C[C@@H]1CN2c3c(cc4c(-c5nccn5C)noc4c3F)CC3(C(=O)NC(=O)NC3=O)[C@@H]2[C@H](C)O1 (relative stereo) [Example 68, (2R,4S,4aR)-rel-11-fluoro-2,4-dimethyl-8-(1-methyl-1H-imidazol-2-yl)-1,2,4,4a-tetrahydro-2′H,6H-spiro[1,4-oxazino[4,3-a][1,2]oxazolo[4,5-g]quinoline-5,5′-pyrimidine]-2′,4′,6′(1′H,3′H)-trione] | 700 nM | –
C[C@@H]1CN2c3c(cc4c(-n5cc(-c6cnccn6)cn5)noc4c3F)CC3(C(=O)NC(=O)NC3=O)[C@H]2[C@H](C)O1 (relative stereo) [Example 35, (2R,4S,4aS)-rel-11-fluoro-2,4-dimethyl-8-[4-(pyrazin-2-yl)-1H-pyrazol-1-yl]-1,2,4,4a-tetrahydro-2′H,6H-spiro[1,4-oxazino[4,3-a][1,2]oxazolo[4,5-g]quinoline-5,5′-pyrimidine]-2′,4′,6′(1′H,3′H)-trione] | 30000 nM | –
C[C@@H]1CN2c3c(nc4c(-c5ccc(C#N)c(F)c5)noc4c3Cl)CC3(C(=O)NC(=O)NC3=O)[C@H]2[C@H](C)O1 (relative stereo) [Example 121, 4-((2R,4S,4aS)-rel-11-chloro-2,4-dimethyl-2′,4′,6′-trioxo-2,2′,3′,4,4a,4′,6,6′-octahydro-1H,1′H-spiro[isoxazolo[4,5-g][1,4]oxazino[4,3-a][1,5]naphthyridine-5,5′-pyrimidine]-8-yl)-2-fluorobenzonitrile] | 600 nM | –
COc1nccc(-c2noc3c(F)c4c(cc23)CC2(C(=O)NC(=O)NC2=O)[C@H]2[C@H](C)O[C@H](C)CN42)n1 [Example 172, (2R,4S,4aS)-11-fluoro-8-(2-methoxypyrimidin-4-yl)-2,4-dimethyl-2,4,4a,6-tetrahydro-1H,1′H-spiro[isoxazolo[4,5-g][1,4]oxazino[4,3-a]quinoline-5,5′-pyrimidine]-2′,4′,6′(3′H)-trione] | 900 nM | –
C[C@@H]1CN2c3c(cc4c(-c5ccnc(C#N)n5)noc4c3F)CC3(C(=O)NC(=O)NC3=O)[C@H]2[C@H](C)O1 [Example 173, 4-((2R,4S,4aS)-11-fluoro-2,4-dimethyl-2′,4′,6′-trioxo-2,2′,3′,4,4a,4′,6,6′-octahydro-1H,1′H-spiro[isoxazolo[4,5-g][1,4]oxazino[4,3-a]quinoline-5,5′-pyrimidine]-8-yl)pyrimidine-2-carbonitrile] | 100 nM | –
C[C@@H]1CN2c3c(cc4c(-n5cncn5)noc4c3F)CC3(C(=O)NC(=O)NC3=O)[C@H]2[C@H](C)O1 [Example 53(a), (2R,4 S,4 aS)-11-fluoro-2,4-dimethyl-8-(1H-1,2,4-triazol-1-yl)-2,4,4a,6-tetrahydro-1H,1′H-spiro[isoxazolo[4,5-g][1,4]oxazino[4,3-a]quinoline-5,5′-pyrimidine]-2′,4′,6′(3′H)-trione] | 200 nM | –
Cc1csc(-c2noc3c(Cl)c4c(nc23)CC2(C(=O)NC(=O)NC2=O)[C@H]2[C@H](C)O[C@H](C)CN42)n1 (relative stereo) [Example 113, (2R,4S,4aS)-rel-11-Chloro-2,4-dimethyl-8-(4-methylthiazol-2-yl)-2,4,4a,6-tetrahydro-1H,1′H-spiro[isoxazolo[4,5-g][1,4]oxazino[4,3-a][1,5]naphthyridine-5,5′-pyrimidine]-2′,4′,6′(3′H)-trione] | 2500 nM | –
CON(C)C(=O)c1noc2c(F)c3c(cc12)CC1(C(=O)NC(=O)NC1=O)[C@H]1[C@H](C)O[C@H](C)CN31 (relative stereo) [Example 137, (2R,4S,4aS)-rel-11-fluoro-N-methoxy-N,2,4-trimethyl-2′,4′,6′-trioxo-2,2′,3′,4,4a,4′,6,6′-octahydro-1H,1′H-spiro[isoxazolo[4,5-g][1,4]oxazino[4,3-a]quinoline-5,5′-pyrimidine]-8-carboxamide] | 2300 nM | –
C[C@@H]1CN2c3c(cc4c(C(=O)N(C)C)noc4c3F)CC3(C(=O)NC(=O)NC3=O)[C@H]2[C@H](C)O1 (relative stereo) [Example 136, (2R,4S,4aS)-rel-11-fluoro-N,N,2,4-tetramethyl-2′,4′,6′-trioxo-2,2′,3′,4,4a,4′,6,6′-octahydro-1H,1′H-spiro[isoxazolo[4,5-g][1,4]oxazino[4,3-a]quinoline-5,5′-pyrimidine]-8-carboxamide] | 2800 nM | –
C[C@@H]1CN2c3c(nc4c(-c5cncs5)noc4c3Cl)CC3(C(=O)NC(=O)NC3=O)[C@H]2[C@H](C)O1 (relative stereo) [Example 115, (2R,4S,4aS)-rel-11-chloro-2,4-dimethyl-8-(thiazol-5-yl)-2,4,4a,6-tetrahydro-1H,1′H-spiro[isoxazolo[4,5-g][1,4]oxazino[4,3-a][1,5]naphthyridine-5,5′-pyrimidine]-2′,4′,6′(3′H)-trione] | 1100 nM | –
Cc1cnn(-c2noc3c(F)c4c(cc23)CC2(C(=O)NC(=O)NC2=O)[C@H]2[C@H](C)O[C@H](C)CN42)c1 (relative stereo) [Example 60, (2R,4S,4aS)-rel-11-fluoro-2,4-dimethyl-8-(4-methyl-1H-pyrazol-1-yl)-1,2,4,4a-tetrahydro-2′H,6H-spiro[1,4-oxazino[4,3-a][1,2]oxazolo[4,5-g]quinoline-5,5′-pyrimidine]-2′,4′,6′(1′H,3′H)-trione] | 1200 nM | –
C[C@@H]1CN2c3c(cc4c(-c5cncs5)noc4c3Cl)CC3(C(=O)NC(=O)NC3=O)[C@H]2[C@H](C)O1 (relative stereo) [Example 41, (2R,4S,4aS)-rel-11-chloro-2,4-dimethyl-8-(1,3-thiazol-5-yl)-1,2,4,4a-tetrahydro-2′H,6H-spiro[1,4-oxazino[4,3-a][1,2]oxazolo[4,5-g]quinoline-5,5′-pyrimidine]-2′,4′,6′(1′H,3′H)-trione] | 800 nM | –
Cc1ncn(-c2noc3c(F)c4c(cc23)CC2(C(=O)NC(=O)NC2=O)[C@H]2[C@H](C)O[C@H](C)CN42)n1 (relative stereo) [Example 54, (2R,4S,4aS)-rel-11-fluoro-2,4-dimethyl-8-(3-methyl-1H-1,2,4-triazol-1-yl)-1,2,4,4a-tetrahydro-2′H,6H-spiro[1,4-oxazino[4,3-a][1,2]oxazolo[4,5-g]quinoline-5,5′-pyrimidine]-2′,4′,6′(1′H,3′H)-trione] | 2000 nM | –
C[C@H]1CN2c3c(cc4c(C(=O)NCC(F)F)noc4c3F)CC3(C(=O)NC(=O)NC3=O)[C@@H]2[C@@H](C)O1 [Example 94(a), (2S,4R,4aR)—N-(2,2-difluoroethyl)-11-fluoro-2,4-dimethyl-2′,4′,6′-trioxo-2,2′,3′,4,4a,4′,6,6′-octahydro-1H,1′H-spiro[isoxazolo[4,5-g][1,4]oxazino[4,3-a]quinoline-5,5′-pyrimidine]-8-carboxamide] | 51000 nM | –
COC1CCN(C(=O)c2noc3c(F)c4c(cc23)CC2(C(=O)NC(=O)NC2=O)[C@H]2[C@H](C)O[C@H](C)CN42)CC1 (relative stereo) [Example 151, (2R,4S,4aS)-rel-11-fluoro-8-(4-methoxypiperidine-1-carbonyl)-2,4-dimethyl-2,4,4a,6-tetrahydro-1H,1′H-spiro[isoxazolo[4,5-g][1,4]oxazino[4,3-a]quinoline-5,5′-pyrimidine]-2′,4′,6′(3′H)-trione] | 5500 nM | –
C[C@@H]1CN2c3c(cc4c(NCc5c[nH]cn5)noc4c3F)CC3(C(=O)NC(=O)NC3=O)[C@H]2[C@H](C)O1 (relative stereo) [Example 11, (2R,4S,4aS)-rel-11-fluoro-8-[(1H-imidazol-4-ylmethyl)amino]-2,4-dimethyl-1,2,4,4a-tetrahydro-2′H,6H-spiro[1,4-oxazino[4,3-a][1,2]oxazolo[4,5-g]quinoline-5,5′-pyrimidine]-2′,4′,6′(1′H,3′H)-trione] | 800 nM | –
CCOC(=O)c1cnn(-c2noc3c(F)c4c(cc23)CC2(C(=O)NC(=O)NC2=O)[C@H]2[C@H](C)O[C@H](C)CN42)c1 (relative stereo) [Example 37, ethyl 1-[(2R,4S,4aS)-rel-11-fluoro-2,4-dimethyl-2′,4′,6′-trioxo-1,1′,2,3′,4,4′,4a,6′-octahydro-2′H,6H-spiro[1,4-oxazino[4,3-a][1,2]oxazolo[4,5-g]quinoline-5,5′-pyrimidin]-8-yl]-1H-pyrazole-4-carboxylate] | 8500 nM | –
C[C@H]1CN2c3c(nc4c(-c5nccs5)noc4c3Cl)CC3(C(=O)NC(=O)NC3=O)[C@@H]2[C@@H](C)O1 [Example 111(a), (2S,4R,4aR)-11-chloro-2,4-dimethyl-8-(thiazol-2-yl)-2,4,4a,6-tetrahydro-1H,1′H-spiro[isoxazolo[4,5-g][1,4]oxazino[4,3-a][1,5]naphthyridine-5,5′-pyrimidine]-2′,4′,6′(3′H)-trione] | 83000 nM | –
C[C@@H]1CN2c3c(cc4c(C(=O)N5CC(C#N)C5)noc4c3F)CC3(C(=O)NC(=O)NC3=O)[C@H]2[C@H](C)O1 (relative stereo) [Example 164, 1-((2R,4 S,4 aS)-rel-11-fluoro-2,4-dimethyl-2′,4′,6′-trioxo-2,2′,3′,4,4a,4′,6,6′-octahydro-1H,1′H-spiro[isoxazolo[4,5-g][1,4]oxazino[4,3-a]quinoline-5,5′-pyrimidine]-8-ylcarbonyl)azetidine-3-carbonitrile] | – | 1200 nM
